Laboratory results reported in ChEMBL document CHEMBL1201862, “PubChem BioAssay data set” (2004).
Calls of active or inactive are those of the source.

Columns and labels:
[1] = target: Photoreceptor-specific nuclear receptor (Homo sapiens, UniProt Q9Y5X4); format: functional;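 also: potency for compounds that break the NR2E3 corepressor complex and count as activators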
Estrogen receptor beta [2] = target: T1, Estrogen receptor beta (Homo sapiens, UniProt Q92731); test: ERβ–SRC-3 coactivator interaction inhibitors, confirmation, orthogonal assay, biochemical, ELISA, streptavidin-HRP readout (AID 1060)
T1 sequence (Q92731 whole entry): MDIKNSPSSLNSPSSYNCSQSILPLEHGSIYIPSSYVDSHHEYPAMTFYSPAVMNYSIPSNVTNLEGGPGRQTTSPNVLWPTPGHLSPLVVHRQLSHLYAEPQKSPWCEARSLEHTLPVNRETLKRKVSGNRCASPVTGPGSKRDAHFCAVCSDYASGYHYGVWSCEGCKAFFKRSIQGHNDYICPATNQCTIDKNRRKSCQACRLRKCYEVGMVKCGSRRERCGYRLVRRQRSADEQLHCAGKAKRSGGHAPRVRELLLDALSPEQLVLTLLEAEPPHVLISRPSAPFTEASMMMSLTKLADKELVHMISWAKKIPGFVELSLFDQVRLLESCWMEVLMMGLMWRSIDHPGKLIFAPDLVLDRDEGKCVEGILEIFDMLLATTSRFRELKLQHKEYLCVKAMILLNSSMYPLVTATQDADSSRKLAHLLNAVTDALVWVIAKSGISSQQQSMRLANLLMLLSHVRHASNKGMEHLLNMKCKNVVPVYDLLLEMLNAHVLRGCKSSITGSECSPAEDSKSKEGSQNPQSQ

Estrogen receptor beta [3] = target: T1, Estrogen receptor beta
Phospholipase A2 = Phospholipase A2 (Homo sapiens, UniProt P04054); format: functional;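 also: confirmatory dose-response counterscreen on phospholipase A2, testing hits that came from an ultra-high-throughput screen for ATG4B inhibitors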
Chain of Phospholipase A2 (P04054 whole entry): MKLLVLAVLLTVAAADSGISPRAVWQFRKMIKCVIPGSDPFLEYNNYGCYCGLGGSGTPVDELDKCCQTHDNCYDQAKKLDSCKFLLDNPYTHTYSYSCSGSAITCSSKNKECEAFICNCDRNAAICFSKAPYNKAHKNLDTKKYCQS

Large T antigen = Large T antigen (Simian virus 40, UniProt P03070); format: functional, Betapolyomavirus macacae;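 also: Confirmatory-stage PubChem screen for compounds that inhibit SV40 T antigen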
[4] = target: FAD-linked sulfhydryl oxidase ALR (Homo sapiens, UniProt P55789); test: inhibitors of human ALR sulfhydryl oxidase, dose response, biochemical, H2O2 detection, luminescence, cherry-pick (AID 493248)
Chain of FAD-linked sulfhydryl oxidase ALR (P55789 whole entry): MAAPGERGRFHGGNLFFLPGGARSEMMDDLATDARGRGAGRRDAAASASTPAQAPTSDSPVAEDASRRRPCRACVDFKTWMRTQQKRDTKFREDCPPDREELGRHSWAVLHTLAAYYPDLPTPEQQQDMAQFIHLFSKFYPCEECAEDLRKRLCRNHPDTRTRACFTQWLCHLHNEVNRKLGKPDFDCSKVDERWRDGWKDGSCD

Cysteine protease ATG4B = target: T2, Cysteine protease ATG4B (Homo sapiens, UniProt Q9Y4P1); format: functional;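 also: Fluorescence-based dose-response confirmation assay measuring inhibition of ATG4B activity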
T2 sequence (Q9Y4P1 whole entry): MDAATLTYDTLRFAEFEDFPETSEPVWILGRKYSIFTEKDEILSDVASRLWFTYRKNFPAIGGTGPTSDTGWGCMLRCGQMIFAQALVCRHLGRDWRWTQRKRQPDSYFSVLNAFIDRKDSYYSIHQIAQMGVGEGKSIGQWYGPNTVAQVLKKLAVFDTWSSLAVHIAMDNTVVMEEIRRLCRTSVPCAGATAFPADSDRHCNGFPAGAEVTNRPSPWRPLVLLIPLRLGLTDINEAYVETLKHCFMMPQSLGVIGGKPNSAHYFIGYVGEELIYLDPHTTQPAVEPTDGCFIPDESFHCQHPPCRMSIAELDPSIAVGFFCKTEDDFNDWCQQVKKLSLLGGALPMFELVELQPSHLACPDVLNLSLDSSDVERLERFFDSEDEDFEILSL

[5] = Artemis endonuclease inhibitor potency, dose response, biochemical, fluorescence intensity (AID 720701); format: functional;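 also: Artemis endonuclease enzyme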
[6] = target: Peroxisome proliferator-activated receptor gamma/Nuclear receptor corepressor 2 (Homo sapiens, UniProt P37231+Q9Y618); format: functional
Estrogen receptor = target: T3, Estrogen receptor (Homo sapiens, UniProt P03372);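 also: potency for inhibiting coactivator peptide recruitment to the receptor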
T3 sequence (P03372 whole entry): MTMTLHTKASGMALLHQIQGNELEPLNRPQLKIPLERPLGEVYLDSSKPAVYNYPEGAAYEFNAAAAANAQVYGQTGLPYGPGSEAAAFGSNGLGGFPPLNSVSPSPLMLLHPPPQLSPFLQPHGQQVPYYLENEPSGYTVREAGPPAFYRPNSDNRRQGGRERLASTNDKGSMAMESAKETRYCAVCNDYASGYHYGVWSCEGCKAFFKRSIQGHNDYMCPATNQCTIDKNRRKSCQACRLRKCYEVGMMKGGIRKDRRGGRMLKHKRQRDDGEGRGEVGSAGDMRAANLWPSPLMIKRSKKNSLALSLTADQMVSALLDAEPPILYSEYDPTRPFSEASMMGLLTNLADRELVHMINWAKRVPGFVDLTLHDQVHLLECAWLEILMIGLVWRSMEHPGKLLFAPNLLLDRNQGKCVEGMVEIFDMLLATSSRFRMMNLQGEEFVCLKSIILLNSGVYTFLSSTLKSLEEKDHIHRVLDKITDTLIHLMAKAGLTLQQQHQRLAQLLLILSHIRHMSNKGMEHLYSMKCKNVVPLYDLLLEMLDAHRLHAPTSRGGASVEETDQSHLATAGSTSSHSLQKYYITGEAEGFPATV

[7] = target: Bifunctional protein GlmU (Mycobacterium tuberculosis, UniProt P9WMN3); test: Inhibitors of Mycobacterial Glucosamine-1-phosphate acetyl transferase (GlmU). Secondary screen.; design: species or system Mycobacterium tuberculosis H37Rv
Chain of Bifunctional protein GlmU (P9WMN3 whole entry): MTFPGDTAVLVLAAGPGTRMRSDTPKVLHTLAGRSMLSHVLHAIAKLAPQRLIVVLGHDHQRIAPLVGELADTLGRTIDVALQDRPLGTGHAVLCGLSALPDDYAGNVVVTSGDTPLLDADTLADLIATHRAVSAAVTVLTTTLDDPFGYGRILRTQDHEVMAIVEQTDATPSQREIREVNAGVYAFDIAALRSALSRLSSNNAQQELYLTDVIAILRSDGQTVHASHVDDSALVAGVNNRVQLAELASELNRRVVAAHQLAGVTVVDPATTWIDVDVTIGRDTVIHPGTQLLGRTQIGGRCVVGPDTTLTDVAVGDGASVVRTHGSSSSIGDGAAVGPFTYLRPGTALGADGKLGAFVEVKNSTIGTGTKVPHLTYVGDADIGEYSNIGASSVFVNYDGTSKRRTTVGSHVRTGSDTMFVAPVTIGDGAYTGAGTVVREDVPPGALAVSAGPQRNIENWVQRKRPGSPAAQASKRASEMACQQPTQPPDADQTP

[8] = target: Heat shock protein HSP 90-alpha (Homo sapiens, UniProt P07900); test: Luminescence-based dose response biochemical high throughput screening assay for inhibitors of the Heat Shock Protein 90 (HSP90). [Related pubchem assays: 1831 (Summary AID.), 1846 (Confirmation screen.), 1789 (Primary screen.)]
[9] = Luminescence Cell-Based Dose Response HTS to Identify Activators of Luciferase Translation or Activity in H4 […] Cells. [Related pubchem assays: 1829 (Project Summary), 1814 (Primary HTS)]; format: functional
H4 = test: Luminescence Cell-Based Dose Response HTS to Identify Activators of 5'UTR Stem-Loop Driven Prion Protein mRNA Translation in H4 Neuroglioblastoma Cells. [Related pubchem assays: 1829 (Project Summary), 1814 (Primary HTS)]; format: functional; conditions: Homo sapiens
[10] = Luminescence Cell-Based Dose Confirmation HTS to Identify Activators of 5'UTR Stem-Loop Driven Alpha-Synuclein mRNA Translation in H4 Neuroglioblastoma Cells. [Related pubchem assays: 1829 (Project Summary), 1814 (Primary HTS)]; format: functional
[11] = Luminescence Cell-Based Dose Confirmation to Identify Activators of 5'UTR Stem-Loop Driven Alpha-Synuclein mRNA Translation in H4 Neuroglioblastoma Cells. [Related pubchem assays: 1829 (Project Summary), 1814 (Primary HTS)]; format: functional
[12] = Luminescence Cell-Based Dose Response to Identify Activators of 5'UTR Stem-Loop Driven Prion Protein mRNA Translation in H4-C Neuroglioblastoma Cells. [Related pubchem assays: 1829 (Project Summary), 1814 (Primary HTS)]; format: functional
[13] = Luminescence Cell-Based Dose Response to Identify Activators of Luciferase Translation or Activity in H4-C Neuroglioblastoma Cells. [Related pubchem assays: 1829 (Project Summary), 1814 (Primary HTS)]; format: functional
[14] = target: E3 ubiquitin-protein ligase Mdm2 (Homo sapiens, UniProt Q00987); test: enhancers of MDM2-luciferase reporter signal, concentration-effect titration, project on inhibitors of MDM2 ubiquitin ligase, cellular assay, luminescent readout, 384-well plate format (AID 1394); format: functional;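 also: MDM2 E3 inhibitors raise luminescence so EC50 is for signal enhancement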
[15] = P. falciparum Dd2 growth inhibitors, dose response, SYBR Green, dry powder samples, set 9 (AID 1159568); format: functional, cell-based
[16] = inhibitors of Vif binding to APOBEC3G peptide, primary screen, biochemical, TR-FRET, GST-Vif 1-94, biotin-A3G peptide, dose response retest (AID 1117319); format: functional;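 also: TR-FRET signal of purified GST-Vif binding a biotinylated A3G peptide; inhibitors lower the FRET signal by blocking Vif and A3G binding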
[17] = C. albicans growth with fluconazole, confirmation, fluorescence, retest (AID 2467); format: functional, cell-based
[18] = target: RNA-editing ligase 1, mitochondrial (Trypanosoma brucei brucei, UniProt P86926); test: TbREL1 ligase inhibitors, dose response, biochemical, fluorescence, Trypanosoma brucei (AID 1117295); format: functional
Chain of RNA-editing ligase 1, mitochondrial (P86926 whole entry): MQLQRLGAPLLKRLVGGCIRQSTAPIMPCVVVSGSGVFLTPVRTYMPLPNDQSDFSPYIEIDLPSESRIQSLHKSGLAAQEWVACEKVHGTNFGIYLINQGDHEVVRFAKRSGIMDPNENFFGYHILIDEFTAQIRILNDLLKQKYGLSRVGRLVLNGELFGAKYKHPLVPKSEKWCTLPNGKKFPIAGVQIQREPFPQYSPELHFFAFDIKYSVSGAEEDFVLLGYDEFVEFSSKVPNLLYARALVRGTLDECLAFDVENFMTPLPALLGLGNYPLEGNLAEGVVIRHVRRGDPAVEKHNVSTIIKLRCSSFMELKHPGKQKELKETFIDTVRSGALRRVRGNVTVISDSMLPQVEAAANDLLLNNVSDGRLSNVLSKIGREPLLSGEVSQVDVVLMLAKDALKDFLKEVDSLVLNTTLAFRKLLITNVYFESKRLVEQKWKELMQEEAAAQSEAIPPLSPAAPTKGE

[19] = target: Glucose-6-phosphate 1-dehydrogenase (Homo sapiens, UniProt P11413); test: human G6PD enzyme inhibitors, dose response, selectivity assay for P. falciparum G6PD inhibitor project, biochemical, fluorescence (AID 504792); format: functional
Chain of Glucose-6-phosphate 1-dehydrogenase (P11413 whole entry): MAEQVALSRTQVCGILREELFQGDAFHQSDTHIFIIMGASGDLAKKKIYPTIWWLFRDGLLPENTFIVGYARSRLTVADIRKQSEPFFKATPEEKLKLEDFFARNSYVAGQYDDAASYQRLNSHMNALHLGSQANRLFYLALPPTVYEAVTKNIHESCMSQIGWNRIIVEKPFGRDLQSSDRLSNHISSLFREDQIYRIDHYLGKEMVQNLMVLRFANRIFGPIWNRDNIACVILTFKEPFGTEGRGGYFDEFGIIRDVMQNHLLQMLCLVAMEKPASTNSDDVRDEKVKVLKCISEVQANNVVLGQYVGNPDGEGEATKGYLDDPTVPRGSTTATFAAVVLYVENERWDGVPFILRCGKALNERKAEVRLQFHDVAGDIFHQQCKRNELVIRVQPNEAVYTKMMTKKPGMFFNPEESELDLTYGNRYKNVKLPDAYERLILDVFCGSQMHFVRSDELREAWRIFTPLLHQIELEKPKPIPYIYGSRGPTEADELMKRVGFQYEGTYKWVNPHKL

[20] = target: T4, Mannose-6-phosphate isomerase (Homo sapiens, UniProt P34949); test: human PMI inhibitors, high substrate, primary screen, biochemical, fluorescence intensity, high mannose 6-phosphate (AID 1220)
T4 sequence (P34949 whole entry): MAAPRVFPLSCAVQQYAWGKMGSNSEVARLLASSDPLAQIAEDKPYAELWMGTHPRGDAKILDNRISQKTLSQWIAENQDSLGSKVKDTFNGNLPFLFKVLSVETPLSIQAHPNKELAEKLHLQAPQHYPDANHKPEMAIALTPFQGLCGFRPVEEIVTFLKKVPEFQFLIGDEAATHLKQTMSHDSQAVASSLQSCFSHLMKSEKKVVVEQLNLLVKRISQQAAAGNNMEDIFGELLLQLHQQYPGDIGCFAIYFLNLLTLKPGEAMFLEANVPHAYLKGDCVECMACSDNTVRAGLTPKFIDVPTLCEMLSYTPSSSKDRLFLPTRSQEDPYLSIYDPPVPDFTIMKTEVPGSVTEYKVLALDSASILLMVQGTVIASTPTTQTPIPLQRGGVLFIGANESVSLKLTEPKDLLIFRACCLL

Leucine aminopeptidase = target: T5, Leucine aminopeptidase (Plasmodium falciparum 3D7, UniProt Q8IL11); test: P. falciparum M17LAP inhibitors, primary screen, biochemical, fluorogenic H-Leu-NHMec substrate, 1536-well (AID 1619); format: functional
T5 sequence (Q8IL11 whole entry): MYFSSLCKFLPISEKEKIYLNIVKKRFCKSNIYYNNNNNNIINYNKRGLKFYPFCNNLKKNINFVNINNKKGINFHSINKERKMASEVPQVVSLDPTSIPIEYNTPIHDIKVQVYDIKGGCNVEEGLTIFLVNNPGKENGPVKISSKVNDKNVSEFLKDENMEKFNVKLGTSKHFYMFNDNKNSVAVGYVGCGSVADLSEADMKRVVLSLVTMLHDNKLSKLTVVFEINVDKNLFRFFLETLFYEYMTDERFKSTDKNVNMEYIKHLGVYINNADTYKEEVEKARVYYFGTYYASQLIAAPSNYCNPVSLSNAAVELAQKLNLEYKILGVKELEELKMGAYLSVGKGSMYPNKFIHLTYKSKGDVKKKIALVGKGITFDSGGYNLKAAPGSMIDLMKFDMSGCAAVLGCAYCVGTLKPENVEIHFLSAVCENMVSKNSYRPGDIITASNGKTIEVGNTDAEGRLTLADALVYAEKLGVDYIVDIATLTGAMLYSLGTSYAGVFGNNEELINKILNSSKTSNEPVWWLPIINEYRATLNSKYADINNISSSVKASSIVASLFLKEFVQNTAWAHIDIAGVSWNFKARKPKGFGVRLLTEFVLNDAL

Genome polyprotein = Genome polyprotein (dengue virus type 2, UniProt P29990); test: Dengue-2 NS5 methyltransferase inhibitors, primary screen, biochemical, confirmation dose response (AID 588689); format: functional
[21] = NIH-3T3 fibroblast cytotoxicity, dose response, cytotoxicity control, cell-based, fluorescence, Alamar Blue, secondary assay (AID 2327); format: functional;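 also: NIH-3T3 mouse fibroblasts cultured with fluconazole at 8 µg/mL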
[22] = THP-1 cell cytotoxicity, dose response, cytotoxicity control for Vif-APOBEC3G degradation inhibitor project, THP-1 cells (AID 1117359); format: functional; conditions: Human immunodeficiency virus 1, THP-1
Vero = Vero cell cytotoxicity, cytotoxicity control for flavivirus capping enzyme inhibitors (AID 588742); format: functional; conditions: Chlorocebus sabaeus
Protein Tat = target: T6, Protein Tat (Human immunodeficiency virus type 1 group M subtype B (isolate HXB2)(HIV-1), UniProt P04608); format: functional;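 also: tat binding to TAR RNA read out by fluorescence polarization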
T6 sequence (P04608 whole entry): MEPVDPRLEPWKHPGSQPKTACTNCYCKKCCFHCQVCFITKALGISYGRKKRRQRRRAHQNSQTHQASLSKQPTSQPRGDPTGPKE

[23] = target: Protein-tyrosine kinase 2-beta (Homo sapiens, UniProt Q14289);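 also: potency of inhibitors of PYK2 kinase phosphorylation of poly-GT substrate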
Chain of Protein-tyrosine kinase 2-beta (Q14289 whole entry): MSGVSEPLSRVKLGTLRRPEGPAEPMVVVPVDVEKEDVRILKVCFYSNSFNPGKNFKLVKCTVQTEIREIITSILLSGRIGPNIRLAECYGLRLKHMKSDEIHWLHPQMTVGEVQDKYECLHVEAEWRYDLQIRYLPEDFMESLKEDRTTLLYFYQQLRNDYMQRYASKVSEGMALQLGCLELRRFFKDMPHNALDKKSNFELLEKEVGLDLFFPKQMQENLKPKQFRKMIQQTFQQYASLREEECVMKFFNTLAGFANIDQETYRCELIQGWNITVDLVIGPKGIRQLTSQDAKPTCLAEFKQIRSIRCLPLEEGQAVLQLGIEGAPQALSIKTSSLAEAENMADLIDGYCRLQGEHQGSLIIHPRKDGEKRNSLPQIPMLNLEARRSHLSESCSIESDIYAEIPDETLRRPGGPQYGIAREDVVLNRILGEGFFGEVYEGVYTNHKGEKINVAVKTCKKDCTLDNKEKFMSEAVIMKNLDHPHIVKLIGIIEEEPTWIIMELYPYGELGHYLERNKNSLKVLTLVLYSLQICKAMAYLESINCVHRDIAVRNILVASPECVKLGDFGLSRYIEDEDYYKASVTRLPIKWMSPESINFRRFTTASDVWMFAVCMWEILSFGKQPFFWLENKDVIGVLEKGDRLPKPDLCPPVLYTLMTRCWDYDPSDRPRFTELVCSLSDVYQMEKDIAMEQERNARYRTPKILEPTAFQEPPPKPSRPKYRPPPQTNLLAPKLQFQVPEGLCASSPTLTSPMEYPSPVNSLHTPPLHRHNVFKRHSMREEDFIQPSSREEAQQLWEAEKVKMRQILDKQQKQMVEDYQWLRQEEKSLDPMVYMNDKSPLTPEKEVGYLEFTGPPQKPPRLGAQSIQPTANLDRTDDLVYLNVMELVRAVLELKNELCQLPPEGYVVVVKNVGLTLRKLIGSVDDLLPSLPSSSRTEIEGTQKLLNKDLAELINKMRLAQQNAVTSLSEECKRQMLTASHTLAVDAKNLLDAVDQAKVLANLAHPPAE

Cytochrome P450 3A4 = Cytochrome P450 3A4 (Homo sapiens, UniProt P08684);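 also: CYP3A4 tested as one member of a cytochrome P450 panel screen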
Chain of Cytochrome P450 3A4 (P08684 whole entry): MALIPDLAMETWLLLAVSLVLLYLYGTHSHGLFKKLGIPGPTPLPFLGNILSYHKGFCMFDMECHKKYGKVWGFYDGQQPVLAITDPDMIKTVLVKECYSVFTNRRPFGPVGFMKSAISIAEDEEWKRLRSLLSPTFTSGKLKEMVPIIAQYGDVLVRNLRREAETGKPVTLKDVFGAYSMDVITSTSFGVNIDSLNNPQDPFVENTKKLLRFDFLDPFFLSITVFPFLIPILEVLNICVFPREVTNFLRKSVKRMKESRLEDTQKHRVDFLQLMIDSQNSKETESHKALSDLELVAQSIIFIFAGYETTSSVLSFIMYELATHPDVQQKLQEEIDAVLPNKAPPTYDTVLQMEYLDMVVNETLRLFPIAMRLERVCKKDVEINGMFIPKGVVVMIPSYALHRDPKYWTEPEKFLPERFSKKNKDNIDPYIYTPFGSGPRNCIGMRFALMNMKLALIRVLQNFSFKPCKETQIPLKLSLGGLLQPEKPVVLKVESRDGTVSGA

[24] = target: Mitogen-activated protein kinase 10 (Homo sapiens, UniProt P53779); test: Dose response biochemical screening assay for inhibitors of c-Jun N-Terminal Kinase 3 (JNK3). [Related pubchem assays: 746 ]
Cytochrome P450 2D6 = Cytochrome P450 2D6 (Homo sapiens, UniProt P10635);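 also: CYP2D6 member of a cytochrome P450 panel assay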
Chain of Cytochrome P450 2D6 (P10635 whole entry, canonical isoform): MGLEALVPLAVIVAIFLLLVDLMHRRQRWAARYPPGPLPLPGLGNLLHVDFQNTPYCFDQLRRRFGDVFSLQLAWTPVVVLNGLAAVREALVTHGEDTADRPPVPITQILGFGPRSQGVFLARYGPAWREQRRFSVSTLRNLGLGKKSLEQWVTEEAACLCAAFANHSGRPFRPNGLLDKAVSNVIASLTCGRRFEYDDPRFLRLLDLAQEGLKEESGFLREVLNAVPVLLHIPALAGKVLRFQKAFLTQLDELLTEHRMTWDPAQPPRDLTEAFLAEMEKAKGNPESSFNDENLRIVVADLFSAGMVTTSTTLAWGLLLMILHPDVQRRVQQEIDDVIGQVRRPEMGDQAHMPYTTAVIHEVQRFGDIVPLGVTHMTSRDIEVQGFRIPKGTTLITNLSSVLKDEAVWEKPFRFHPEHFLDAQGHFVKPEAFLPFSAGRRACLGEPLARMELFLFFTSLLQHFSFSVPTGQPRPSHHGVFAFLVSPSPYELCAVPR

[25] = target: T7, Low molecular weight phosphotyrosine protein phosphatase (Homo sapiens, UniProt P24666); test: LMPTP phosphatase inhibitors, colorimetric pNPP readout, dose response, orthogonal assay, biochemical, absorbance, pNPP substrate, LMPTP-A isoform, set 2 (AID 743308); format: functional
T7 sequence (P24666 whole entry): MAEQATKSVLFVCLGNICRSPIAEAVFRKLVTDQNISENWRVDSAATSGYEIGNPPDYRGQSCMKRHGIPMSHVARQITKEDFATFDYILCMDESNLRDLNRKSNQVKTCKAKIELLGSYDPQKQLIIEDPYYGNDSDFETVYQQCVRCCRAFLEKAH

[26] = target: T7, Low molecular weight phosphotyrosine protein phosphatase; format: functional; conditions: read-out: IC50_Mean
[27] = target: T7, Low molecular weight phosphotyrosine protein phosphatase; test: LMPTP phosphatase inhibitors, dose response, biochemical, OMFP substrate, fluorescence intensity, set 2 (AID 743307); format: functional
[28] = target: Metabotropic glutamate receptor 7 (Homo sapiens, UniProt Q14831); test: mGlu7 positive allosteric modulators, dose response, cell-based, calcium mobilization, Galpha15 (AID 743384); format: functional
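For IC50 Mean in this document: Dose-response confirmation assay measuring inhibition of LMPTP enzyme activity by fluorescence intensity read-out.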

Chain of Photoreceptor-specific nuclear receptor (Q9Y5X4 whole entry): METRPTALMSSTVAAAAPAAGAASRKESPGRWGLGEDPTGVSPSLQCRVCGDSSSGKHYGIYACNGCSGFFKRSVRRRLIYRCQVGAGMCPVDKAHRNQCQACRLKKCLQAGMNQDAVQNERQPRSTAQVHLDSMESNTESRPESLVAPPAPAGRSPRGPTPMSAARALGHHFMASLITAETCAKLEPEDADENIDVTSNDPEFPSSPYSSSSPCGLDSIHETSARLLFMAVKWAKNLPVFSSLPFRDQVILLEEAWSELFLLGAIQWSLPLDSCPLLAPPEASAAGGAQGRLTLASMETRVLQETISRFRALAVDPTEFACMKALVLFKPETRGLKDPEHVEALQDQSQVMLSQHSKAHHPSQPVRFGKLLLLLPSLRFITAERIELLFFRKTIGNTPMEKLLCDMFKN

## O=C(O)c1cc(-c2ccco2)nc2ccc(Br)cc12
[1]
  IC50: > 39.8 µM (not active)
Estrogen receptor beta [2]
  IC50: < 0.023 µM (not active)
Estrogen receptor beta [3]
  IC50: 9.82 µM (active)
Phospholipase A2
  IC50: 12.2 µM (active)
Large T antigen
  IC50: 78.6 µM (active)
[4]
  AC50: 0.785 µM (active)
Cysteine protease ATG4B
  IC50: 9.96 µM (active)
[5]
  IC50: > 20 µM (inactive)
[6]
  IC50: 1.38 µM (active)
Estrogen receptor
  IC50: 47.6 µM (not active)
[7]
  IC50: 81.9 µM (active)

## CCOC(=O)c1sc(NC(=O)c2ccc(C)o2)nc1C
[8]
  IC50: 6.55 µM (active)
[9]
  EC50: < 0.1 µM (inconclusive)
H4
  EC50: 3.76 µM (active)
[10]
  EC50: 0.306 µM (active)
[11]
  EC50: 0.793 µM (active)
[12]
  EC50: 0.541 µM (active)
[13]
  EC50: 0.421 µM (active)

## COc1ccc(OC)c(CNn2c(-c3ccccc3F)nc3ccccc3c2=O)c1
[14]
  EC50: 85 µM (not active)

## C[C@@H]1CN([C@H](C)CO)C(=O)c2cc(N(C)C)ccc2O[C@@H](C)CCCCO[C@@H]1CN(C)S(=O)(=O)c1ccc(F)cc1
[15]
  AC50: 12.1 µM (active)

## Cc1ccc(C(=O)N2CCN(c3ccccc3)CC2)cc1C
[16]
  IC50: > 100 µM (active)

## CC/N=c1\scc(C)n1/N=C/c1ccc(O)c(O)c1O
[17]
  EC50: > 38 µM (not active)
[18]
  IC50: > 96.6 µM (inactive)
[19]
  IC50: 57.4 µM (inactive)
[20]
  IC50: 12 µM (active)
Leucine aminopeptidase
  IC50: 82.3 µM (active)
Genome polyprotein
  IC50: 21.4 µM (active)
[21]
  EC50: > 150 µM (inactive)
[22]
  CC50: 29.6 µM (active)
Vero
  CC50: > 40 µM (active)
Protein Tat
  IC50: 54.4 µM (inconclusive)

## CCOC(=O)c1cccc2c1-c1ccccc1/C2=N/O
[23]
  IC50: 7.48 µM (active)
Cytochrome P450 3A4
  AC50: 28.2 µM (inconclusive)
[24]
  IC50: 11.5 µM (not active)
Cytochrome P450 2D6
  AC50: inconclusive

## c1ccc(-c2nc(NC3CCCC3)c3ccccc3n2)cc1
[25]
  IC50: > 80 µM (inactive)
[26]
  IC50: 10 µM (active)
[27]
  IC50: 21.1 µM (inactive)

## Cc1ccc(CSCC(=O)c2cc(C)n(-c3ccc(OC(F)F)cc3)c2C)cc1
[28]
  EC50: 3.16 µM (active)
